# Measured values taken from patent publication US20240368118A1, “CEREBLON BINDING COMPOUNDS, COMPOSITIONS THEREOF, AND METHODS OF TREATMENT THEREWITH” (CELGENE CORPORATION, priority 2021, published 2024).
# Structures can show the parent of a compound that is named as a salt.
# Biological target: T1, AR (Homo sapiens, UniProt P10275)
# T1 construct: endogenous in cells; host or cells: VCaP cells
# T1 sequence (P10275 1-920): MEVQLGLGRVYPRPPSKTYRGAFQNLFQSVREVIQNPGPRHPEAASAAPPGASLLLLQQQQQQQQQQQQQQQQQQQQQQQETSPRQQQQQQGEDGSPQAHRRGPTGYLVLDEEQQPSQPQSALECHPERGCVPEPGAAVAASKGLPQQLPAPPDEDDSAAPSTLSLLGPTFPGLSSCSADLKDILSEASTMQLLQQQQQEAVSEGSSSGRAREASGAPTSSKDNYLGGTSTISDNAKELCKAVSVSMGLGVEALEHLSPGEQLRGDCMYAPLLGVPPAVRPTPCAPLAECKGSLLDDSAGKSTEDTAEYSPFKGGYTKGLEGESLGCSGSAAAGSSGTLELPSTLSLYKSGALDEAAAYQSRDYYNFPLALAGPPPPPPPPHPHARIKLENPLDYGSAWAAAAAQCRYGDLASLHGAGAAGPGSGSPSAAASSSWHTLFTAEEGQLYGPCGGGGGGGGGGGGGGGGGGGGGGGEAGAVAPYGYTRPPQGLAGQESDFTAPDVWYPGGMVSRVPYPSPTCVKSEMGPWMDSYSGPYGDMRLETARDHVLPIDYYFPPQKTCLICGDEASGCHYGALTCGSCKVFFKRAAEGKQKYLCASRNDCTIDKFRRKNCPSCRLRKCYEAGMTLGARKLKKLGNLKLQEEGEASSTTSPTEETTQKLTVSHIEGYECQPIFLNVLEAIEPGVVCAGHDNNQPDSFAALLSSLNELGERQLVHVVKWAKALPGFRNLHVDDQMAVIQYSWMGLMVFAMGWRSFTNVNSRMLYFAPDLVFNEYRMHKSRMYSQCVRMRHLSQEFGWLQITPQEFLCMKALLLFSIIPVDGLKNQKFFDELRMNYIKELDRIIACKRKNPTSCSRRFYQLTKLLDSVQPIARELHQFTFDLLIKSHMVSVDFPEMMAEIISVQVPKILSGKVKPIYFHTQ
# Assay: VCAP AR Degradation Assay
# Type: cell-based
# Settings: VCaP cells, 24 h; for DC50: AR ELISA, concentration when AR level = 50% of DMSO control; for Ymin: lowest AR level normalized to DMSO control
# Procedure: VCAP AR Degradation Assay. Test compounds were pre-dispensed into a Corning CellBind 96-well clear bottom plate (Cat #3300) using an acoustic dispenser to make a 10-point concentration series at 1:3 dilution for each compound. The final top concentration of each compound was 5 μM. DMSO at a final concentration of 0.1% was used as a control. VCaP cells cultured in DMEM with 8% fetal bovine serum (FBS) were seeded at 50K cells per well in a 200 μL volume into the compound plate and incubated at 37° C. in a C02 incubator for 24 h. The medium was carefully removed from the cells and the plate was placed on ice. One hundred μL of ice-cold 1× cell lysis buffer from Cell Signaling Technologies (Cat #9803) was added to each well of the cells and the plate was incubated at 4° C. on a shaker for 1 h. Fifteen μL of cell lysate was used for AR ELISA detection using a PathScan Total Sandwich AR ELISA kit (Cell Signaling Technology, Cat #12580). AR levels in compound-treated wells were normalized to that of DMSO control and expressed as percent of control (PoC) (y). A Four Parameter Logistic Model (Sigmoidal Dose-Response Model) was used to determine the compound's DC50, and EC50, using the following equation: […]
# The lowest measured AR level normalized to DMSO control in response to compound treatment, termed Y value, was used to characterize the compound-mediated AR degradation efficiency.
Compound,DC50 [nM],Ymin (class symbols),Ymin (given as numbers)
"C[C@@H]1CN(CCC[C@H]2CC[C@H](N3C(=S)N(c4cnc(C#N)c(C(F)(F)F)c4)C(=O)C3(C)C)CC2)C[C@H](C)N1CC(=O)Nc1ccc(C2CCC(=O)NC2=O)cc1 (stereo partly drawn) [Cmpd 15, 2-((2R,6S)-4-(3-(trans-4-(3-(6-Cyano-5-(trifluoromethyl)pyridin-3-yl)-5,5-dimethyl-4-oxo-2-thioxoimidazolidin-1-yl)cyclohexyl)propyl)-2,6-dimethylpiperazin-1-yl)-N-(4-(2,6-dioxopiperidin-3-yl)phenyl)acetamide hydrochloride]",≤ 5,** (20%<Y≤30%),–
"C[C@@H]1CN(CCC[C@H]2CC[C@H](N3C(=S)N(c4cnc(C#N)c(Cl)c4)C(=O)C3(C)C)CC2)C[C@H](C)N1CC(=O)Nc1ccc(C2CCC(=O)NC2=O)cc1 (stereo partly drawn) [Cmpd 16, 2-((2R,6S)-4-(3-(trans-4-(3-(5-Chloro-6-cyanopyridin-3-yl)-5,5-dimethyl-4-oxo-2-thioxoimidazolidin-1-yl)cyclohexyl)propyl)-2,6-dimethylpiperazin-1-yl)-N-(4-(2,6-dioxopiperidin-3-yl)phenyl)acetamide hydrochloride]",5 to 15,*** (30%<Y<80%),–
"C[C@@H]1CN(CCC[C@H]2CC[C@H](N3C(=S)N(c4ccc(C#N)c(Cl)c4)C(=O)C3(C)C)CC2)C[C@H](C)N1CC(=O)Nc1ccc(C2CCC(=O)NC2=O)cc1 (stereo partly drawn) [Cmpd 17, 2-((2S,6R)-4-(3-(trans-4-(3-(3-Chloro-4-cyanophenyl)-5,5-dimethyl-4-oxo-2-thioxoimidazolidin-1-yl)cyclohexyl)propyl)-2,6-dimethylpiperazin-1-yl)-N-(4-(2,6-dioxopiperidin-3-yl)phenyl)acetamide hydrochloride]",5 to 15,*** (30%<Y<80%),–
"C[C@@H]1CN(CCCO[C@H]2CC[C@H](N3C(=S)N(c4ccc(C#N)c(C(F)(F)F)c4)C(=O)C3(C)C)CC2)C[C@H](C)N1CC(=O)Nc1cccc(N2CCC(=O)NC2=O)c1 [Cmpd 19, 2-((2R,6S)-4-(3-((trans-4-(3-(4-Cyano-3-(trifluoromethyl)phenyl)-5,5-dimethyl-4-oxo-2-thioxoimidazolidin-1-yl)cyclohexyl)oxy)propyl)-2,6-dimethylpiperazin-1-yl)-N-(3-(2,4-dioxotetrahydropyrimidin-1(2H)-yl)phenyl)acetamide hydrochloride]",≤ 5,** (20%<Y≤30%),–
"C[C@@H]1CN(CCCO[C@H]2CC[C@H](N3C(=S)N(c4ccc(C#N)c(C(F)(F)F)c4)C(=O)C3(C)C)CC2)C[C@H](C)N1CC(=O)Nc1cccc(C2CCC(=O)NC2=O)c1 (stereo partly drawn) [Cmpd 20, 2-((2R,6S)-4-(3-((trans-4-(3-(4-Cyano-3-(trifluoromethyl)phenyl)-5,5-dimethyl-4-oxo-2-thioxoimidazolidin-1-yl)cyclohexyl)oxy)propyl)-2,6-dimethylpiperazin-1-yl)-N-(3-(2,6-dioxopiperidin-3-yl)phenyl)acetamide hydrochloride]",≤ 5,** (20%<Y≤30%),–
"C[C@@H]1C[C@@H](CCO[C@H]2CC[C@H](N3C(=S)N(c4ccc(C#N)c(C(F)(F)F)c4)C(=O)C3(C)C)CC2)C[C@H](C)N1CC(=O)Nc1ccc(C2CCC(=O)NC2=O)cc1 (stereo partly drawn) [Cmpd 21, 2-((2R,4s,6S)-4-(2-((trans-4-(3-(4-Cyano-3-(trifluoromethyl)phenyl)-5,5-dimethyl-4-oxo-2-thioxoimidazolidin-1-yl)cyclohexyl)oxy)ethyl)-2,6-dimethylpiperidin-1-yl)-N-(4-(2,6-dioxopiperidin-3-yl)phenyl)acetamide hydrochloride]",≤ 5,* (0<Y≤20%),–
"C[C@@H]1C[C@H](CCO[C@H]2CC[C@H](N3C(=S)N(c4ccc(C#N)c(C(F)(F)F)c4)C(=O)C3(C)C)CC2)C[C@H](C)N1CC(=O)Nc1ccc(C2CCC(=O)NC2=O)cc1 (stereo partly drawn) [Cmpd 22, 2-((2R,4r,6S)-4-(2-((trans-4-(3-(4-Cyano-3-(trifluoromethyl)phenyl)-5,5-dimethyl-4-oxo-2-thioxoimidazolidin-1-yl)cyclohexyl)oxy)ethyl)-2,6-dimethylpiperidin-1-yl)-N-(4-(2,6-dioxopiperidin-3-yl)phenyl)acetamide hydrochloride]",≤ 5,* (0<Y≤20%),–
"CC1(C)C(=O)N(c2ccc(C#N)c(C(F)(F)F)c2)C(=S)N1[C@H]1CC[C@H](OCCN2CCN(CC(=O)Nc3ccc(C4CCC(=O)NC4=O)cc3)[C@@H](C(F)(F)F)C2)CC1 (stereo partly drawn) [Cmpd 23, 2-((R)-4-(2-((trans-4-(3-(4-Cyano-3-(trifluoromethyl)phenyl)-5,5-dimethyl-4-oxo-2-thioxoimidazolidin-1-yl)cyclohexyl)oxy)ethyl)-2-(trifluoromethyl)piperazin-1-yl)-N-(4-(2,6-dioxopiperidin-3-yl)phenyl)acetamide hydrochloride]",5 to 15,* (0<Y≤20%),–
"C[C@@H]1CN(CCCC[C@H]2CC[C@H](N3C(=S)N(c4ccc(C#N)c(C(F)(F)F)c4)C(=O)C3(C)C)CC2)C[C@H](C)N1CC(=O)Nc1cccc(C2CCC(=O)NC2=O)c1 (stereo partly drawn) [Cmpd 24, 2-((2R,6S)-4-(4-((trans)-4-(3-(4-Cyano-3-(trifluoromethyl)phenyl)-5,5-dimethyl-4-oxo-2-thioxoimidazolidin-1-yl)cyclohexyl)butyl)-2,6-dimethylpiperazin-1-yl)-N-(3-(2,6-dioxopiperidin-3-yl)phenyl)acetamide]",≤ 5,–,15 % of DMSO control
"C[C@@H]1CN(CCCC[C@H]2CC[C@H](N3C(=S)N(c4ccc(C#N)c(C(F)(F)F)c4)C(=O)C3(C)C)CC2)C[C@H](C)N1CC(=O)Nc1cccc(N2CCC(=O)NC2=O)c1 [Cmpd 25, 2-((2R,6S)-4-(4-((trans)-4-(3-(4-Cyano-3-(trifluoromethyl)phenyl)-5,5-dimethyl-4-oxo-2-thioxoimidazolidin-1-yl)cyclohexyl)butyl)-2,6-dimethylpiperazin-1-yl)-N-(3-(2,4-dioxotetrahydropyrimidin-1(2H)-yl)phenyl)acetamide]",5 to 15,–,24 % of DMSO control
"C[C@@H]1CN(CCCC[C@H]2CC[C@H](N3C(=S)N(c4ccc(C#N)c(C(F)(F)F)c4)C(=O)C3(C)C)CC2)C[C@H](C)N1CC(=O)Nc1ccc(N2CCC(=O)NC2=O)cc1 [Cmpd 26, 2-((2R,6S)-4-(4-((trans)-4-(3-(4-Cyano-3-(trifluoromethyl)phenyl)-5,5-dimethyl-4-oxo-2-thioxoimidazolidin-1-yl)cyclohexyl)butyl)-2,6-dimethylpiperazin-1-yl)-N-(4-(2,4-dioxotetrahydropyrimidin-1(2H)-yl)phenyl)acetamide]",5 to 15,–,25 % of DMSO control
"C[C@@H]1C[C@H](CCO[C@H]2CC[C@H](N3C(=S)N(c4cnc(C#N)c(C(F)(F)F)c4)C(=O)C3(C)C)CC2)C[C@H](C)N1CC(=O)Nc1ccc(C2CCC(=O)NC2=O)cc1 (stereo partly drawn) [Cmpd 27, 2-((2R,4r,6S)-4-(2-(((trans)-4-(3-(6-Cyano-5-(trifluoromethyl)pyridin-3-yl)-5,5-dimethyl-4-oxo-2-thioxoimidazolidin-1-yl)cyclohexyl)oxy)ethyl)-2,6-dimethylpiperidin-1-yl)-N-(4-(2,6-dioxopiperidin-3-yl)phenyl)acetamide]",≤ 5,–,11 % of DMSO control
"CC1(C)C(=O)N(c2cnc(C#N)c(C(F)(F)F)c2)C(=S)N1[C@H]1CC[C@H](OCCN2CCN(CC(=O)Nc3ccc(C4CCC(=O)NC4=O)cc3)[C@@H](C(F)(F)F)C2)CC1 (stereo partly drawn) [Cmpd 28, 2-((R)-4-(2-(((trans)-4-(3-(6-Cyano-5-(trifluoromethyl)pyridin-3-yl)-5,5-dimethyl-4-oxo-2-thioxoimidazolidin-1-yl)cyclohexyl)oxy)ethyl)-2-(trifluoromethyl)piperazin-1-yl)-N-(4-(2,6-dioxopiperidin-3-yl)phenyl)acetamide]",≤ 5,–,20 % of DMSO control
